According to patent US20220127565A1, “A Self-Assembling Short Amphiphilic Peptide And Related Methods And Uses” (Agency for Science, Technology and Research, priority 2019, published 2022):
Blank lines part the entries; values can stand above or below the compound they belong to. Residues, ends and D or L forms follow the SMILES beside them.

Columns and labels:
[1] = Gelation in dimethylsulfoxide; type: physicochemical
[2] = Gelation / hydrogel formation, minimum gelation concentration in water, buffered saline or PBS; type: physicochemical; conditions: for Self-assembly into hydrogels / scaffolds: aqueous conditions; for Minimum gelation concentration in buffered saline / Self-assembly into hydrogels / scaffolds: buffered saline
Procedure: Preparation of Hydrogels.
Lyophilized peptide powder was dissolved in milliQ water and mixed for 30 seconds by vortexing to obtain a homogenous solution. 10% volume of 10-times phosphate-buffered saline was subsequently added and mixed by pipetting. Gelation occurred between seconds (PBS) to overnight (water), depending on the peptide concentration and solution used.

[3] = Circular dichroism spectroscopy, secondary structure transitions with increasing peptide concentration; type: physicochemical; conditions: for Secondary structure transitions: Table 1; for Secondary structure / conformational transitions (circular dichroism): increasing peptide concentration
Procedure: Circular Dichroism Spectroscopy.
CD spectra were collected with a Jasco CD spectrophotometer fitted with a temperature controller, using quartz suprasil cuvettes with an optical path length of 1 mm. All samples were prepared in milIQ water and equilibrated for an hour at room temperature before measurement. Data acquisition was performed for wavelength range from 190-260 nm with a spectral bandwidth of 1.0 nm. All spectra were baseline-corrected using milliQ water as baseline. The mean residue ellipticity (MRE) was calculated as follows:
[θ]=θ/(10·N·c·l) where […] represents the ellipticity in millidegrees, N the number of amino acid residues, c the molar concentration in mol·L-1, and I the cell path length in cm.

[4] = TGA degradation temperature; type: physicochemical
[5] = Thixotropy of hydrogel, recovery after vortexing; type: physicochemical; conditions: hydrogel disturbed by vortexing
[6] = system: 8 cm×8 cm excisional full thickness wound; assay: Porcine wound healing study of peptide hydrogel wound dressings; type: in vivo; conditions: hydrogel applied weekly for 6 weeks
Procedure: A porcine wound healing study was performed to evaluate the peptide hydrogels for wound healing applications. An 8 cm×8 cm excisional full thickness wound was created on the back of the animal, and three of the peptide hydrogels were applied using a polydimethylsiloxane mould. Wound dressing changes were carried out weekly for 6 weeks, with application of fresh hydrogel.

[7] = system: H1 human embryonic stem cells; assay: Chromosomal aberrations after 5 passages of 3D culture; type: cell-based
Procedure: (§1) 3D Encapsulation of Stem Cells.
(§2) H1 embryonic stem cells cultured on Matrigel were dissociated into single cells using TrypLE Express, and re-suspended in 50% mTESR in PBS at an approximate concentration of 4×10^6, 10^7 or 1.6×10^7 cells/mL. 0.5 μL of cells was injected into a droplet of 2 μL 10 mg/mL peptide solution. Warmed culture media (mTESR) containing ROCK inhibitor Y-27632 was added for the first day and replaced by either mTESR or endoderm differentiation media subsequently. The endoderm differentiation protocol was adapted from Spence et al (2011). Briefly, the encapsulated cells were exposed to RPMI media containing 100 ng/mL Activin A, 2 mM glutamax, 1% penicillin-streptomycin and increasing concentrations of defined fetal bovine serum. After 3 days, the hydrogel droplets were washed with RPMI and incubated in hindgut differentiation media (RPMI media containing 1% defined fetal bovine serum, 1% penicillin-streptomycin, 2 mM glutamax, 500 ng/mL FGF4 and 500 ng/mL Wnt3A.

[8] = system: embryonic stem cells H1 and H9; assay: 3D culture of pluripotent stem cells encapsulated in hydrogel droplets; type: cell-based, human; conditions: for Colony formation of single cell suspensions in hydrogel: H1 and H9, cell encapsulation densities exceeding 5×10^6 cells/mL
Procedure: as §1, §2
Immunohistochemistry and Confocal Microscopy Imaging.
Cell samples were fixed in 4% paraformaldehyde for 15 minutes and permeabilized in 0.01% Triton-X for 10 minutes. The encapsulated human embryonic stem cells were incubated at 4° C. overnight in 5% Bovine-Serum Albumin containing primary antibodies. The corresponding secondary antibodies and DAPI were applied for 90 minutes before the samples were imaged. Confocal microscopy was performed using a Zeiss LSM 510 microscope at the Institute of Medical Biology Microscopy Unit (A*STAR, Singapore).

[9] = system: H9 embryonic stem cells; assay: 3D endoderm / hindgut differentiation of encapsulated stem cells (H9); type: cell-based, human; conditions: H9 in 8 mg/mL hydrogel droplets
[10] = Rheology, storage modulus of hydrogels; type: physicochemical; conditions: hydrogels prepared in buffered saline
Procedure: Hydrogel samples were prepared in polydimethysiloxane moulds to obtain approximately 1 mm thick, 8 mm diameter discs. Dynamic strain and oscillatory frequency sweep experiments were carried out using the ARES-G2 Rheometer (TA Instruments, Piscataway, N.J.) with 8 mm titanium parallel plate geometry. The readings of 3 samples were averaged for each condition.

Compound: CC[C@H](C)[C@H](NC(C)=O)C(=O)N[C@H](C(=O)N[C@@H](CCCCN)C(N)=O)C(C)C [Ac-IVK-NH2, reference compound] (Ac-Ile-Val-Lys-NH2)
- Minimum gelation concentration in buffered saline [2]: >30 mg/mL
- Secondary structure transitions [3]: Yes

Compound: CC[C@H](C)[C@H](NC(=O)[C@@H](NC(=O)[C@H](CC(=O)O)NC(C)=O)C(C)C)C(N)=O [Ac-DVI-NH2] (Ac-Asp-Val-Ile-NH2)
- TGA Degradation Temperature [4]: 321.5 °C
- [Peptide] min, PBS [2]: 9.9 mg/mL
- Self-assembly into hydrogels / scaffolds [2]: self-assemble into nanofibrous scaffolds
- [Peptide] min, water [2]: 11.6 mg/mL
- Standing time to return to gel state after vortexing [5]: 10 min

Compound: Ac-HGAVLI-NH2 [Ac-HGAVLI-NH2]
- Gel formation in dimethylsulfoxide [1]: thixotrophic gels
- Reduction of wound size [6]: effective reduction of wound size

Compound: CC[C@H](C)[C@H](NC(C)=O)C(=O)N[C@H](C(=O)N[C@@H](CC(=O)O)C(=O)O)C(C)C [Ac-IVD, reference compound] (Ac-Ile-Val-Asp-OH; C-terminus assumed)
- TGA Degradation Temperature [4]: 323.6 °C
- [Peptide] min, PBS [2]: 19.2 mg/mL
- [Peptide] min, water [2]: 40.8 mg/mL

Compound: CC[C@H](C)[C@H](NC(C)=O)C(=O)N[C@H](C(=O)N[C@@H](CC(=O)O)C(N)=O)C(C)C [Ac-IVD-NH2, reference compound] (Ac-Ile-Val-Asp-NH2)
- TGA Degradation Temperature [4]: 328.5 °C
- [Peptide] min, PBS [2]: 33.9 mg/mL
- [Peptide] min, water [2]: 44.9 mg/mL

Compound: Ac-ILVAGK-NH2 [Ac-ILVAGK-NH2, reference compound]
- Storage moduli of hydrogels [10]: ~10 kPa
- Minimum gelation concentration in buffered saline [2]: 3 mg/mL
- Colony formation of single cell suspensions in hydrogel [8]: several colonies developed
- Secondary structure transitions [3]: Yes

Compound: Ac-GAVLI-NH2 [Ac-GAVLI-NH2]
- Gel formation in dimethylsulfoxide [1]: thixotrophic gels

Compound: Ac-HGAVIA-NH2 [Ac-HGAVIA-NH2]
- Gel formation in dimethylsulfoxide [1]: thixotrophic gels

Further lines, with some results ahead:

- Gel formation in dimethylsulfoxide [1]: thixotrophic gels
Compound: Ac-SGAVIA-NH2 [Ac-SGAVIA-NH2]

- Self-assembly into hydrogels / scaffolds [2]: forms hydrogels in buffered saline
- Minimum gelation concentration in buffered saline [2]: 20 mg/mL
- Secondary structure transitions [3]: Yes
- Secondary structure / conformational transitions (circular dichroism) [3]: same conformational transitions
Compound: H-KGAVLI-NH2 [KGAVLI-NH2]

- Minimum gelation concentration in buffered saline [2]: >30 mg/mL
- Secondary structure transitions [3]: Yes
Compound: CC[C@H](C)[C@H](NC(=O)[C@@H](NC(=O)[C@H](CCCCN)NC(C)=O)C(C)C)C(N)=O [Ac-KVI-NH2] (Ac-Lys-Val-Ile-NH2)
- Secondary structure / conformational transitions (circular dichroism) [3]: same secondary structure transitions as their parent sequences

- Minimum gelation concentration in buffered saline [2]: 3 mg/mL
- Secondary structure transitions [3]: Yes
Compound: Ac-KGAVLI-NH2 [Ac-KGAVLI-NH2]
- Mutagenicity, chromosomal aberrations [7]: non-mutagenic
- Colony formation at lower cell seeding densities ([8]; 2×10^6 cells/mL): formation of several colonies within a single droplet
- Colony formation of single cell suspensions in hydrogel [8]: more likely to aggregate into a single colony
- Pluripotency, staining of Oct4 and Tral-60 biomarkers ([8]; cultured in defined mTESR media): retained their pluripotency
- Retention of the expanding colonies ([8]; day 7, bioprinted hydrogel droplets encapsulating cells): higher retention of the expanding colonies
- Cell migration and consistency in generating single colonies ([8]; synthetic 3D stem cell culture substrate, compared to Gen1 analog): enhanced cell migration and better consistency in generating single colonies
- Expression of hindgut biomarker Cdx2 ([9]; day 9): expression of hindgut biomarker Cdx2 was observed
- Cells expressing Sox17, flow cytometry ([9]; definitive endoderm differentiation): 90%
- Reduction of wound size [6]: effective reduction of wound size
- Secondary structure / conformational transitions (circular dichroism) [3]: same secondary structure transitions as their parent sequences

- Gel formation in dimethylsulfoxide [1]: thixotrophic gels
Compound: H-SGAVLI-NH2 [SGAVLI-NH2]
- Reduction of wound size [6]: effective reduction of wound size
